The values that follow are results of earlier work, collected in patent US9452147B2, “Lipolytic methods” (Neothetics, Inc., priority 2005, dated 2016).

The conditions of data set [1]: relative to albuterol 5, a short acting hydrophilic beta agonist.
In data set [2] the test system is thigh circumference in women. To be noted: subcutaneous injections three to five times per week in multiple locations over the thighs.

Take `OCc1cc(C(O)CNCCCCCCOCCCCc2ccccc2)ccc1O` (racemic) [salmeterol 1, ±2-(hydroxymethyl)-4-[1-hydroxy-2-[6-(4-phenylbutoxyl)hexylamino]ethyl]-phenol]: the “times more lipophilic than albuterol 5” value in data set [1] is listed as “at least 10,000 times”. On to `CC(C)NCC(O)c1ccc(O)c(O)c1` (stereo not drawn) [isoproterenol], for which, in data set [2], the “thigh circumference in women” value is recorded as “reduce the thigh circumference”. In the case of `COC(=O)[C@@H]1[C@H]2C[C@H]3c4[nH]c5ccccc5c4CCN3C[C@@H]2CC[C@@H]1O` [yohimbine], the “thigh circumference in women” value in data set [2] is “reduce the thigh circumference”.
